Data on 4 compounds can be found in PubChem BioAssay AID1963860 (Molecular Pharmacology Branch, DTP, NCI, 2024).

The assay concerns CN0375-F725-PDC KRAS spheroid viability. The experiment in a line: Anticancer human tumor CN0375-F725-PDC patient-derived colon carcinoma cell line growth inhibition [KRAS2]. The note with it: spheroids with HUVEC and MSC; for viability, T/C: stronger effect = lower value. The procedure, abridged:
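KRAS-mutant tumor cells were grown as spheroids with HUVEC endothelial cells and human MSCs as stroma. Targeted agents were tested alone and with KRAS pathway inhibitors. Doses started at or near clinical Cmax, or 10 microM, descending half-log.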

Where [1] appears, read: curve of first compound, second compound 0.1 µM.
The mark [2] stands for this setting: curve of first compound, second compound 0.316 µM.
Where [3] appears, read: curve of first compound, second compound 1 µM.
[4] abbreviates: curve of first compound, second compound 3.16 µM.
[5] abbreviates: curve of first compound, second compound 10 µM.
The mark [6] stands for this setting: second compound 0.1 µM, first compound 0.0316 µM.
Setting [7] is: second compound 0.1 µM, first compound 0.1 µM.
The mark [8] stands for this setting: second compound 0.1 µM, first compound 0.316 µM.
The mark [9] stands for this setting: second compound 0.1 µM, first compound 1 µM.
Where [10] appears, read: second compound 0.1 µM, first compound 3.16 µM.
[11] abbreviates: second compound 0.316 µM, first compound 0.0316 µM.
The mark [12] stands for this setting: second compound 0.316 µM, first compound 0.1 µM.
Where [13] appears, read: second compound 0.316 µM, first compound 0.316 µM.
Setting [14] is: second compound 0.316 µM, first compound 1 µM.
The mark [15] stands for this setting: second compound 0.316 µM, first compound 3.16 µM.
Where [16] appears, read: second compound 1 µM, first compound 0.0316 µM.
The mark [17] stands for this setting: second compound 1 µM, first compound 0.1 µM.
Setting [18] is: second compound 1 µM, first compound 0.316 µM.
Setting [19] is: second compound 1 µM, first compound 1 µM.
Where [20] appears, read: second compound 1 µM, first compound 3.16 µM.
[21] abbreviates: second compound 3.16 µM, first compound 0.0316 µM.
[22] abbreviates: second compound 3.16 µM, first compound 0.1 µM.
Where [23] appears, read: second compound 3.16 µM, first compound 0.316 µM.
The mark [24] stands for this setting: second compound 3.16 µM, first compound 1 µM.
[25] abbreviates: second compound 3.16 µM, first compound 3.16 µM.
The mark [26] stands for this setting: second compound 10 µM, first compound 0.0316 µM.
Setting [27] is: second compound 10 µM, first compound 0.1 µM.
Where [28] appears, read: second compound 10 µM, first compound 0.316 µM.
The mark [29] stands for this setting: second compound 10 µM, first compound 1 µM.
The mark [30] stands for this setting: second compound 10 µM, first compound 3.16 µM.

A value given as a limit tells only on which side of the number the result lay.
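Also: spheroids exposed to agents for 7 days.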

As to `CC(C)NCC(C(=O)N1CCN(c2ncnc3c2C(C)CC3O)CC1)c1ccc(Cl)cc1` (stereo not drawn) + COc1cc2nc(C)nc(NC(C)c3cc(N)cc(C(F)(F)F)c3)c2cc1OC1CCOC1, the IC50 (usually the midpoint of a concentration-inhibition curve) is greater than 10 µM under setting [1]; greater than 10 µM under setting [2]; greater than 10 µM under setting [3]; greater than 10 µM under setting [4]; less than 0.0316 µM under setting [5]. Further, the viability, T/C (in general, the result in the treated group divided by that in the control group, in per cent) is 100% under setting [6]; 100% under setting [7]; 87.7% under setting [8]; 88.3% under setting [9]; 84.8% under setting [10]; 74.4% (second compound 0.1 µM, first compound 10 µM). Moreover, the viability, T/C is 95.5% under setting [11]; 97.3% under setting [12]; 88.5% under setting [13]; 85.1% under setting [14]; 81.3% under setting [15]; 71.1% (second compound 0.316 µM, first compound 10 µM). Also, the viability, T/C by setting is: under setting [16], 93.6%; under setting [17], 93.3%; under setting [18], 85.2%; under setting [19], 80.7%; under setting [20], 74.4%; (second compound 1 µM, first compound 10 µM) 65.5%. Also, the viability, T/C by setting is: under setting [21], 88.5%; under setting [22], 81.7%; under setting [23], 76.9%; under setting [24], 66.9%; under setting [25], 62.4%; (second compound 3.16 µM, first compound 10 µM) 50.5%. Moreover, the viability, T/C is 16.1% under setting [26]; 18.6% under setting [27]; 14.8% under setting [28]; 10.8% under setting [29]; 8.1% under setting [30]; 5.67% (second compound 10 µM, first compound 10 µM).

As to `COc1cc2nc(C)nc(NC(C)c3cc(N)cc(C(F)(F)F)c3)c2cc1OC1CCOC1` (stereo not drawn), the viability, T/C by setting is: (compound 0.1 µM) 96.2% [middle of 17 runs]; (compound 0.316 µM) 92.3% [middle of 17 runs]; (compound 1 µM) 90.5% [middle of 17 runs]; (compound 3.16 µM) 83.4% [middle of 17 runs]. Also, the half-maximal inhibitory concentration (IC50) is 5.77 µM [middle of 4 runs] (compound alone, run of 08/26/2021) and 5.43 µM [middle of 6 runs] (compound alone, run of 09/02/2021).

In the case of `Cn1nccc1Nc1nccc(-c2cc3c(s2)C(C)(C)N(CCN2CCOCC2)C3=O)n1`, the viability, T/C by setting is: (compound 0.0316 µM) 104% [middle of 5 runs]; (compound 0.1 µM) 90% [middle of 5 runs]; (compound 0.316 µM) 77.5% [middle of 5 runs]; (compound 1 µM) 72.3% [middle of 5 runs]; (compound 3.16 µM) 56.5% [middle of 5 runs]; (compound 10 µM) 44.6% [middle of 5 runs]. In addition, for the setting “curve of compound”, the half-maximal inhibitory concentration (IC50) was 5.56 µM [middle of 5 runs].

In the case of `CC(=O)OC12COC1CC(O)C1(C)C(=O)C(O)C3=C(C)C(OC(=O)C(O)C(NC(=O)OC(C)(C)C)c4ccccc4)CC(O)(C(OC(=O)c4ccccc4)C21)C3(C)C` (stereo not drawn) + CNCc1ccccc1-c1csc(C(C)Nc2nc(C)nc3cc(OC)c(OC)cc23)c1, the concentration for half-maximal inhibition (IC50) under setting [1] was greater than 3.16 µM; the IC50 under setting [2] was greater than 3.16 µM; the IC50 under setting [3] was greater than 3.16 µM; the concentration for half-maximal inhibition (IC50) under setting [4] was less than 0.01 µM; the 50% inhibitory concentration (IC50) under setting [5] is less than 0.01 µM. Further, the viability, T/C reads like this: (second compound 0.1 µM, first compound 0.01 µM) 96.2%; under setting [6], 97.7%; under setting [7], 80.7%; under setting [8], 82.5%; under setting [9], 80.4%; under setting [10], 74.2%. For the same compound, the viability, T/C (second compound 0.316 µM, first compound 0.01 µM) was 92.8%; the viability, T/C under setting [11] was 89.4%; the viability, T/C under setting [12] is 77.5%; the viability, T/C under setting [13] is 74.7%; the viability, T/C under setting [14] is 78.5%; the viability, T/C under setting [15] is 66.8%. For the same compound, the viability, T/C is 101% (second compound 1 µM, first compound 0.01 µM); 99.7% under setting [16]; 91.8% under setting [17]; 84% under setting [18]; 77.4% under setting [19]; 78% under setting [20]. The viability, T/C was 1.13% (second compound 3.16 µM, first compound 0.01 µM); 100% under setting [21]; 0.66% under setting [22]; 0.86% under setting [23]; 1.34% under setting [24]; 79.3% under setting [25]. Besides, the viability, T/C was 0.72% (second compound 10 µM, first compound 0.01 µM); 0.57% under setting [26]; 0.77% under setting [27]; 0.24% under setting [28]; 0.62% under setting [29]; 0.25% under setting [30].
